The structures appear in SMILES notation.

The target in one assay is T1, human KDR (Homo sapiens, UniProt P35968).
T1 construct: expressed in transfected cells; host or cells: NIH 3T3 cells (Sawano A et al., Cell Growth & Differentiation 7, 213-221 (1996))
Briefly: Inhibitory activity against KDR phosphorylation by ELISA. As to conditions: NIH 3T3 cells transfected with human KDR, VEGF 100 ng/ml. Type of assay: cell-based. The procedure: Measurement of Inhibitory Activity Against KDR Phosphorylation by ELISA
NIH 3T3 cells (Sawano A et al., Cell Growth & Differentation, 7, 213–221 (1996), “Flt-1 but not KDR/Flk-1 tyrosine kinase is a receptor for placenta growth factor, which is related to vascular endothelial growth factor”) prepared by transfection of human KDR were cultured in a DMEM medium containing 10% fetal calf serum (purchased from GIBCO BRL) within a 5% carbon dioxide incubator until 50 to 70% confluent. The harvested cells were inoculated into wells, containing the same medium, in a collagen-type one-coat 96-well flat-bottom plate in an amount of 1.5×10^4 per well, followed by cultivation at 37° C. overnight. The medium was then replaced by a DMEM medium containing 0.1% fetal calf serum. A solution of the test compound in dimethyl sulfoxide was added to each well, and the cultivation was continued at 37° C. for additional one hr. A human recombinant vascular endothelial growth factor (hereinafter abbreviated to “VEGF”) was added to a final concentration of 100 ng/ml, and the stimulation of cells was carried out at 37° C. for 2 min. The medium was removed, the cells were washed with phosphate buffered saline (pH 7.4), and 50 μl of a solubilization buffer (20 mM HEPES (pH 7.4), 150 mM NaCl, 0.2% Triton X-100, 10% glycerol, 5 mM sodium orthovanadylate, 5 mM disodium ethylenediaminetetraacetate, and 2 mM Na4P2O7) was then added thereto. The mixture was shaken at 4° C. for 2 hr to prepare a cell extract.
Separately, phosphate buffered saline (50 μl, pH 7.4) containing […] of anti-phospho-tyrosine antibody (PY20; purchased from Transduction Laboratories) was added to a microplate for ELISA (Maxisorp; purchased from NUNC), followed by standing at 4° C. overnight to form a solid phase on the wells. After washing of the plate, 300 μl of a blocking solution was added, followed by standing at room temperature for 2 hr to perform blocking. After washing, the whole quantity of the cell extract was transferred to the wells, and the plate was then allowed to stand at 4° C. overnight. After washing, an anti-KDR antibody (purchased from Santa Cruz) was allowed to react at room temperature for one hr, and, after washing, a peroxidase-labeled anti-rabbit Ig antibody (purchased from Amersham) was allowed to react at room temperature for one hr. After washing, a chromophoric substrate for peroxidase (purchased from Sumitomo Bakelite Co., Ltd.) was added thereto to initiate a reaction. After a suitable level of color development, a reaction termination solution was added to stop the reaction, and the absorbance at 450 nm was measured with a microplate reader. The KDR phosphorylation activity for each well was determined by presuming the absorbance with the addition of VEGF and without the addition of the medicament to be 100% KDR phosphorylation activity and the absorbance without the medicament and VEGF to be 0% KDR phosphorylation activity. The concentration of the test compound was varied on several levels, the inhibition (%) of KDR phosphorylation was determined for each case, and the concentration of the test compound necessary for inhibiting 50% of KDR phosphorylation (IC50) was calculated.

For a further assay, the system named is Human glioma cells GL07. Description: Antitumor effect on human glioma cells (GL07) transplanted into nude mice. The format is in vivo. As to conditions: GL07, oral, 20 mg/kg once a day for 9 days; for inhibition in vivo at 20 mg/kg: Mus musculus, Glioma cell, 216 h, read-out: TGIR, % (tumor growth inhibition rate). As to the method:
Antitumor Effect on Human Glioma Cells (GL07)
Human glioma cells GL07 (obtained from Central Laboratories for Experimental Animals) were transplanted into nude mice. When the tumor volume became about 100 mm^3, the mice were grouped. In this case, grouping was carried out so that each group consisted of four mice and the average tumor volume was even among the groups. The test compound was orally or intraperitoneally administered at a dose of 20 mg/kg to the test groups every day once a day for 9 days, while the medium was administered to the control group in the manner as in the test groups. The tumor growth inhibition rate (TGIR) was calculated as follows: The tumor growth inhibition rate (TGIR)=(1−Tx/Cx)×100 wherein Cx represents the volume of tumor at day x for the control group when the tumor volume at the day of the start of the administration was presumed to be 1; and Tx represents the volume of tumor for test compound administration groups.

T1 sequence (P35968 20-1356): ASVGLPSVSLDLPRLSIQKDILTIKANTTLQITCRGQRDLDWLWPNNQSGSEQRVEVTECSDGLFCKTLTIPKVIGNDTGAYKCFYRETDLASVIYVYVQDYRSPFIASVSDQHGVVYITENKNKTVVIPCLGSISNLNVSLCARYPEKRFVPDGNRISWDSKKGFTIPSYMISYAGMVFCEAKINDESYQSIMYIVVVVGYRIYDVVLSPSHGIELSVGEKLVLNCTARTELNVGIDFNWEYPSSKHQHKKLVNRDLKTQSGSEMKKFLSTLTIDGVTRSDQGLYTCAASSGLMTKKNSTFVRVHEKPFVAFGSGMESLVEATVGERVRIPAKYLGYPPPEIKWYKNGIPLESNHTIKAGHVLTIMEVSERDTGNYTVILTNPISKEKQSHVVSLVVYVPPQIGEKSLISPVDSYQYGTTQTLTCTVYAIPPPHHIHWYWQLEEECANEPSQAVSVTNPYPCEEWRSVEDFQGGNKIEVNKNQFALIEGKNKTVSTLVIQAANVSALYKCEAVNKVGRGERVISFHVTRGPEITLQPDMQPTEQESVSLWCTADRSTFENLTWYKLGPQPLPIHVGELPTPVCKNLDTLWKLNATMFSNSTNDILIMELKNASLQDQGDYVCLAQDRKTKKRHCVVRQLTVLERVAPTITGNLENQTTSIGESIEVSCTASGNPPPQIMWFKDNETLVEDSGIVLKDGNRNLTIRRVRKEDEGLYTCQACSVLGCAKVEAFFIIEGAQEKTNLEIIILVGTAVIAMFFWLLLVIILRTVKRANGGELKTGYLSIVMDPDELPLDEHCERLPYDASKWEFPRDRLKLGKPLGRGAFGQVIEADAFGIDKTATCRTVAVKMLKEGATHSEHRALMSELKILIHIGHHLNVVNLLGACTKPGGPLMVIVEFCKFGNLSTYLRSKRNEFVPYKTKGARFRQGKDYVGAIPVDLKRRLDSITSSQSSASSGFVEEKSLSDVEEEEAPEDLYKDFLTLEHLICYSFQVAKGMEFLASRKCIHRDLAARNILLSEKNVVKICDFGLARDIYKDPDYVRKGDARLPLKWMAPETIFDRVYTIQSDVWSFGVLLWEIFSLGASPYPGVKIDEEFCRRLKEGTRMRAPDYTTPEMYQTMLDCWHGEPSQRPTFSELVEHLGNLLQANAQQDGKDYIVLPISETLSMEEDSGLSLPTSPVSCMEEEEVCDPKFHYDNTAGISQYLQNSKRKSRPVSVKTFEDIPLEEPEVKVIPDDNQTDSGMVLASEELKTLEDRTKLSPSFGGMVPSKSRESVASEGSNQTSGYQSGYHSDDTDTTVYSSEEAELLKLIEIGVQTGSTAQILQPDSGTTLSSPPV

At human KDR, `COc1cc2c(Oc3ccc(NC(=O)N(C)C)c(Cl)c3)ncnc2cc1OCCCN(C)CCO` [Example 183, N′-{2-Chloro-4-[(7-{3-[(2-hydroxyethyl)-(methyl)amino]propoxy}-6-methoxy-4-quinazolinyl)oxy]-phenyl}-N,N-dimethylurea] had an IC50 above 1000 nM. Further, in the assay with Human glioma cells GL07, the inhibition in vivo at 20 mg/kg amounted to 22%.

The compound `COc1cc2c(Oc3ccc(NC(=O)Nc4ccc(F)cc4F)c(Cl)c3)ccnc2cc1OCCn1ccnn1` [Example 170, N-[2-chloro-4-(6-methoxy-7-{[2-(1H-1,2,3-triazol-1-yl)ethoxy]-4-quinolyl}oxy)phenyl]-N′-(2,4-difluorophenyl)urea] yielded an IC50 against human KDR of 1.1 nM. Moreover, in the assay on Human glioma cells GL07, the “TGIR, % (tumor growth inhibition rate)” value is on record as 64%.

Compound `CCCNC(=O)Nc1ccc(Oc2ccnc3cc(OCCCN4CCOCC4)c(OC)cc23)cc1Cl` [Example 151, N-(2-chloro-4-{[6-methoxy-7-(3-morpholinopropoxy)-4-quinolyl]oxy}phenyl)-N′-propylurea] returned an IC50 on human KDR of 0.5 nM. For the same compound, in the assay with Human glioma cells GL07, the inhibition in vivo at 20 mg/kg was found to be 44%.

Compound `CCCNC(=O)Nc1ccc(Oc2ncnc3cc(OCCN4CCOCC4)c(OC)cc23)cc1Cl` [Example 120, N-(2-Chloro-4-{[6-methoxy-7-(2-morpholinoethoxy)-4-quinazolinyl]oxy}phenyl)-N′-propylurea] had an IC50 on human KDR of 3.9 nM. Moreover, the inhibition in vivo at 20 mg/kg with Human glioma cells GL07 is 30%.

`CCNC(=O)Nc1ccc(Oc2ncnc3cc(OCCCN4CCCCC4)c(OC)cc23)cc1Cl` [Example 185, N-(2-chloro-4-{[6-methoxy-7-(3-piperidinopropoxy)-4-quinazolinyl]oxy}phenyl)-N′-ethylurea]: it took 0.5 nM to reach half-maximal inhibition on human KDR (IC50). In the assay on Human glioma cells GL07, the inhibition in vivo at 20 mg/kg was found to be 59%.

For `CCCNC(=O)Nc1ccc(Oc2ccnc3cc(OCCCCCn4ccnn4)c(OC)cc23)cc1Cl` [Example 159, N-{2-chloro-4-[(6-methoxy-7-{[5-(1H-1,2,3-triazol-1-yl)pentyl]oxy}-4-quinolyl)oxy]phenyl}-N′-propylurea], at human KDR, the IC50 was 1.9 nM. Also, in the assay on Human glioma cells GL07, the inhibition in vivo at 20 mg/kg stood at 40%.

At human KDR, `CNC(=O)Nc1ccc(Oc2ncnc3cc(OCCCN4CCCCC4)c(OC)cc23)cc1Cl` [Example 184, N-(2-chloro-4-{[6-methoxy-7-(3-piperidinopropoxy)-4-quinazolinyl]oxy}phenyl)-N′-methylurea] came in with an IC50 of 0.2 nM. Besides, the inhibition in vivo at 20 mg/kg with Human glioma cells GL07 came to 48%.

On human KDR, `COc1cc2c(Oc3ccc(NC(=O)Nc4ccc(F)cc4F)c(Cl)c3)ncnc2cc1OCCCN(C)CCO` [Example 165, N-{2-chloro-4-[(7-{3-[(2-hydroxyethyl)-(methyl)amino]propoxy}-6-methoxy-4-quinazolinyl)oxy]-phenyl}-N′-(2,4-difluorophenyl)urea] gave an IC50 of 0.6 nM. Moreover, the inhibition in vivo at 20 mg/kg in the assay on Human glioma cells GL07 is 44%.

The compound `CCN(CC)C(=O)Nc1ccc(Oc2ncnc3cc(OC)c(OC)cc23)cc1Cl` [Example 116, N′-{2-Chloro-4-[(6,7-dimethoxy-4-quinazolinyl)oxy]phenyl}-N,N-diethylurea] registered an IC50 on human KDR above 1000 nM. For the same compound, the inhibition in vivo at 20 mg/kg in the assay with Human glioma cells GL07 is 83%.

Consider `CCCNC(=O)Nc1ccc(Oc2ncnc3cc(OC)c(OCCCN4CCN(C)CC4)cc23)cc1Cl` [Example 137, N-[2-Chloro-4-({7-methoxy-6-[3-(4-methylpiperazino)propoxy]-4-quinazolinyl}oxy)phenyl]-N′-propylurea], for which, on human KDR, it took 24 nM to reach half-maximal inhibition (IC50). Moreover, the inhibition in vivo at 20 mg/kg in the assay with Human glioma cells GL07 was determined as 20%.

`CCCNC(=O)Nc1ccc(Oc2ncnc3cc(OCCCO)c(OC)cc23)cc1Cl` [Example 121, N-(2-Chloro-4-{(7-(3-hydroxypropoxy)-6-methoxy-4-quinazolinyl]oxy}phenyl)-N′-propylurea]: on human KDR, 12.5 nM corresponded to half-maximal inhibition (IC50). In addition, in the assay with Human glioma cells GL07, the inhibition in vivo at 20 mg/kg was 22%.

`CCCNC(=O)Nc1ccc(Oc2ncnc3cc(OC)c(OCCCN(C)CCO)cc23)cc1Cl` [Example 140] returned an IC50 at human KDR of 36 nM. For the same compound, the inhibition in vivo at 20 mg/kg in the assay on Human glioma cells GL07 came out at 21%.

Take `COc1cc2ncnc(Oc3ccc(NC(=O)N(C)c4ccc(Cl)cc4)c(Cl)c3)c2cc1OC` [Example 115, N′-{2-Chloro-4-[(6,7-dimethoxy-4-quinazolinyl)oxy]phenyl}-N-(4-chlorophenyl)-N-methylurea]: the IC50 at human KDR was above 1000 nM. Further, the inhibition in vivo at 20 mg/kg in the assay on Human glioma cells GL07 is 74%.

`CCN(CC)C(=O)Nc1ccc(Oc2ncnc3cc(OCc4ccncc4)c(OC)cc23)cc1Cl` [Example 126, N′-(2-Chloro-4-{[6-methoxy-7-(4-pyridylmethoxy)-4-quinazolinyl]oxy}phenyl)-N,N-diethyl-urea] came in with an IC50 against human KDR above 1000 nM. In the assay with Human glioma cells GL07, the inhibition in vivo at 20 mg/kg is 52%.

On human KDR, `COc1cc2c(Oc3ccc(NC(=O)Nc4ccc(F)cc4F)c(Cl)c3)ncnc2cc1OCCN1CCOCC1` [Example 162, N-(2-chloro-4-{[6-methoxy-7-(2-morpholinoethoxy)-4-quinazolinyl]oxy}phenyl)-N′-(2,4-difluorophenyl)urea] returned an IC50 of 1 nM. Moreover, the inhibition in vivo at 20 mg/kg with Human glioma cells GL07 was found to be 40%.

Take `COc1cc2c(Oc3ccc(NC(=O)Nc4ccc(F)cc4F)c(Cl)c3)ccnc2cc1OCc1ccncc1` [Example 186, N-(2-chloro-4-{[6-methoxy-7-(4-pyridylmethoxy)-4-quinolyl]oxy}phenyl)-N′-(2,4-difluorophenyl)urea]: at human KDR, inhibition was half-maximal at 6.3 nM (IC50). The inhibition in vivo at 20 mg/kg with Human glioma cells GL07 was 47%.

`CCCNC(=O)Nc1ccc(Oc2ncnc3cc(OCCCN4CCCCC4)c(OC)cc23)cc1Cl` [Example 135, N-(2-chloro-4-{[6-methoxy-7-(3-piperidinopropoxy)-4-quinazolinyl]oxy}phenyl)-N′-propylurea] displayed an IC50 against human KDR of 1 nM. In addition, in the assay on Human glioma cells GL07, the inhibition in vivo at 20 mg/kg stood at 62%.

Take `CCCNC(=O)Nc1ccc(Oc2ncnc3cc(OCCCSc4ccncc4)c(OC)cc23)cc1Cl` [Example 133, N-[2-Chloro-4-({6-methoxy-7-[3-(4-pyridylthio)propoxy]-4-quinazolinyl}oxy)phenyl]-N′-propylurea]: at human KDR, the IC50 worked out at 8.3 nM. Besides, the inhibition in vivo at 20 mg/kg in the assay with Human glioma cells GL07 stood at 20%.

On to `CCCNC(=O)Nc1ccc(Oc2ncnc3cc(OCCO)c(OC)cc23)cc1Cl` [Example 122, N-(2-Chloro-4-{[7-(2-hydroxyethoxy)-6-methoxy-4-quinazolinyl]oxy}phenyl)-N′-propylurea], for which, on human KDR, it took 5.8 nM to reach half-maximal inhibition (IC50). Further, the inhibition in vivo at 20 mg/kg in the assay with Human glioma cells GL07 is 21%.

On human KDR, `CCCNC(=O)Nc1ccc(Oc2ncnc3cc(OCc4ccncc4)c(OC)cc23)cc1Cl` [Example 123, N-(2-Chloro-4-{[6-methoxy-7-(4-pyridylmethoxy)-4-quinazolinyl]oxy}phenyl)-N′-propylurea] came in with an IC50 of 8.9 nM. Besides, the inhibition in vivo at 20 mg/kg in the assay on Human glioma cells GL07 stood at 31%.

`CCCNC(=O)Nc1ccc(Oc2ccnc3cc(OCCCn4ccnc4)c(OC)cc23)cc1Cl` [Example 154, N-[2-Chloro-4-({7-[3-(1H-1-imidazolyl)-propoxy]-6-methoxy-4-guinolyl}oxy)phenyl]-N′-propylurea] came in with an IC50 against human KDR of 1.5 nM. Moreover, the inhibition in vivo at 20 mg/kg with Human glioma cells GL07 came out at 34%.

Compound `CCCNC(=O)Nc1ccc(Oc2ncnc3cc(OC)c(OCc4ccccn4)cc23)cc1Cl` [Example 138, N-(2-Chloro-4-{[7-methoxy-6-(2-pyridylmethoxy)-4-quinazolinyl]oxy}phenyl)-N′-propylurea] had an IC50 on human KDR of 40 nM. In addition, the inhibition in vivo at 20 mg/kg with Human glioma cells GL07 came to 21%.

(Values after patent US7169789B2 (Kirin Beer Kabushiki Kaisha, priority 1999, dated 2007).)
